Experimental data taken from patent publication US9783537B2, “3-(4-ethylnylphenyl) pyridopyrimidinone compounds and process for preparation thereof useful as potential anticancer agents” (Council of Scientific & Industrial Research, priority 2013, dated 2017).
Where two headings read alike, the source gives them in different places.

What was measured:
UACC-257 = assay: SRB 48 h growth assay, Melanoma UACC-257; format: cell-based, human; conditions: UACC-257, Melanoma
T-47D = assay: SRB 48 h growth assay, Breast T-47D; format: cell-based, human
OVCAR-4 = assay: SRB 48 h growth assay, Ovarian OVCAR-4; format: cell-based, human; conditions: OVCAR-4, Ovarian
NCI-H226 = assay: SRB 48 h growth assay, Non-small Cell Lung NCI-H226; format: cell-based, human; conditions: for GI50: Homo sapiens
ACHN = assay: SRB 48 h growth assay, Renal ACHN; format: cell-based, human
NCI-H460 = assay: SRB 48 h growth assay, Non-small Cell Lung NCI-H460; format: cell-based, human; conditions: for GI50: Homo sapiens
[1] = tested on: seven colon cancer cell line (COLO 205, HCC-2998, HCT-116, HCT-15, HT29, KM12 and SW-620); assay: in vitro anticancer activity, colon panel; format: cell-based; conditions: Homo sapiens; seven colon cancer cell lines, exposure at least 48 h; read-out: GI50, range over panel
SK-MEL-2 = assay: SRB 48 h growth assay, Melanoma SK-MEL-2; format: cell-based, human; conditions: SK-MEL-2, Melanoma
786-0 = assay: SRB 48 h growth assay, Renal 786-0; format: cell-based, human; conditions: 786-0, Renal
DU-145 = assay: SRB 48 h growth assay, Prostate DU-145; format: cell-based, human; conditions: DU-145, Prostate; for GI50 / CC50: Homo sapiens; for CC50: read-out: Log10 LC50 (converted)
K-562 = assay: SRB 48 h growth assay, Leukemia K-562; format: cell-based, human; conditions: for GI50 / CC50: Homo sapiens, K562, K-562, Leukemia; for CC50: read-out: Log10 LC50 (converted); for Log10 TGI50: K-562, Leukemia
[2] = tested on: six breast cancer cell line (MCF-7, MDA-MB-231/ATCC, HS 578T, TD-47D, MDA-MB-468 and BT-549); assay: in vitro anticancer activity, breast panel; format: cell-based; conditions: Homo sapiens; six breast cancer cell lines, exposure at least 48 h; read-out: GI50, range over panel
HOP-62 = assay: SRB 48 h growth assay, Non-small Cell Lung HOP-62; format: cell-based, human; conditions: HOP-62, Non-small Cell Lung
[3] = tested on: seven ovarian cancer cell lines (IGROV1, OVCAR-3, OVCAR-4, OVCAR-5, OVCAR-8, NCI/ADR-RES and SK-OV-3); assay: in vitro anticancer activity, ovarian panel; format: cell-based; conditions: Homo sapiens, exposure at least 48 h, read-out: GI50, range over panel
NCI-H322M = assay: SRB 48 h growth assay, Non-small Cell Lung NCI-H322M; format: cell-based, human
A498 = assay: SRB 48 h growth assay, Renal A498; format: cell-based, human
SK-OV-3 = assay: SRB 48 h growth assay, Ovarian SK-OV-3; format: cell-based, human; conditions: SK-OV-3, Ovarian; for GI50 / CC50: Homo sapiens; for CC50: read-out: Log10 LC50 (converted)
U251 = assay: SRB 48 h growth assay, CNS U251; format: cell-based, human
MDA-MB-468 = assay: SRB 48 h growth assay, Breast MDA-MB-468; format: cell-based, human; conditions: MDA-MB-468, Breast
IGROV1 = assay: SRB 48 h growth assay, Ovarian IGROV1; format: cell-based, human
NCI/ADR-RES = assay: SRB 48 h growth assay, Ovarian NCI/ADR-RES; format: cell-based, human; conditions: for GI50 / CC50: Homo sapiens; for CC50: read-out: Log10 LC50 (converted)
HOP-92 = assay: SRB 48 h growth assay, Non-small Cell Lung HOP-92; format: cell-based, human; conditions: HOP-92, Non-small Cell Lung
OVCAR-3 = assay: SRB 48 h growth assay, Ovarian OVCAR-3; format: cell-based, human; conditions: OVCAR-3, Ovarian
[4] = tested on: six CNS cancer cell line (SF-268, SF-295, SF-539, SNB-19, SNB-75 and U251); assay: in vitro anticancer activity, CNS panel; format: cell-based; conditions: Homo sapiens; six CNS cancer cell lines, exposure at least 48 h; read-out: GI50, range over panel
[5] = tested on: eight renal cancer cell line (786-0, A498, ACHN, CAKI-1, SN12C, TK-10, UO-31 and RXF 393); assay: in vitro anticancer activity, renal panel; format: cell-based; conditions: Homo sapiens; eight renal cancer cell lines, exposure at least 48 h; read-out: in vitro anticancer activity, range over panel
SR = assay: SRB 48 h growth assay, Leukemia SR; format: cell-based, human; conditions: Homo sapiens
[6] = Homo sapiens, read-out: Growth Inhibition GI50
[7] = Homo sapiens, read-out: Log10 GI50 (converted)
[8] = Homo sapiens, read-out: Log10 LC50 (converted)
[9] = read-out: Growth Inhibition GI50
[10] = read-out: Log10 GI50 (converted)

## C#Cc1ccc(-n2c(/C=C/c3cc(OC)c(OC)c(OC)c3)nc3ncccc3c2=O)cc1 [4q, (E)-3-(4-Ethynylphenyl)-2-(3,4,5-trimethoxystyryl)pyrido[2,3-d]pyrimidin-4(3H)-one]
UACC-257; [6]
  GI50: 9.74 µM
UACC-257; [7]
  GI50: 9.77 µM
UACC-257; [8]
  CC50: > 100 µM
UACC-257
  Log10 TGI50: >−4.00
T-47D
  Log10 TGI50: >−4.00
T-47D; Homo sapiens, T47D, read-out: Growth Inhibition GI50
  GI50: 5.85 µM
T-47D; Homo sapiens, T47D, read-out: Log10 GI50 (converted)
  GI50: 5.89 µM
T-47D; Homo sapiens, T47D, read-out: Log10 LC50 (converted)
  CC50: > 100 µM
OVCAR-4; [6]
  GI50: 12 µM
OVCAR-4; [7]
  GI50: 12 µM
OVCAR-4; [8]
  CC50: > 100 µM
OVCAR-4
  Log10 TGI50: −4.04
NCI-H226
  Log10 TGI50: >−4.00
NCI-H226; [9]
  GI50: 12.9 µM
NCI-H226; [10]
  GI50: 12.9 µM
ACHN
  Log10 TGI50: >−4.00
ACHN; [6]
  GI50: 6.63 µM
ACHN; [7]
  GI50: 6.61 µM
ACHN; [8]
  CC50: > 100 µM
NCI-H460
  Log10 TGI50: −4.60
NCI-H460; [9]
  GI50: 4.11 µM
NCI-H460; [10]
  GI50: 4.07 µM
[1]
  GI50: 1.64 to 2.23 µM
SK-MEL-2; [6]
  GI50: 4.54 µM
SK-MEL-2; [7]
  GI50: 4.57 µM
SK-MEL-2; [8]
  CC50: > 100 µM
SK-MEL-2
  Log10 TGI50: −4.66
786-0
  Log10 TGI50: >−4.00
786-0; [6]
  GI50: 5.31 µM
786-0; [7]
  GI50: 5.25 µM
786-0; [8]
  CC50: > 100 µM
DU-145
  Log10 TGI50: >−4.00
  CC50: > 100 µM
DU-145; [9]
  GI50: 5.36 µM
DU-145; [10]
  GI50: 5.37 µM
K-562; [9]
  GI50: 3.83 µM
K-562; [10]
  GI50: 3.8 µM
K-562
  CC50: > 100 µM
  Log10 TGI50: >−4.00
[2]
  GI50: 1.51 to 3.46 µM
HOP-62
  Log10 TGI50: >−4.00
HOP-62; [6]
  GI50: 13.3 µM
HOP-62; [7]
  GI50: 13.2 µM
HOP-62; [8]
  CC50: > 100 µM
[3]
  GI50: 1.67 to 3.61 µM
NCI-H322M
  Log10 TGI50: >−4.00
NCI-H322M; [6]
  GI50: 14.1 µM
NCI-H322M; [7]
  GI50: 14.1 µM
NCI-H322M; [8]
  CC50: > 100 µM
A498
  Log10 TGI50: −5.01
A498; [6]
  GI50: 2.63 µM
A498; [7]
  GI50: 2.63 µM
A498; [8]
  CC50: > 100 µM
SK-OV-3; [9]
  GI50: 5.33 µM
SK-OV-3; [10]
  GI50: 5.37 µM
SK-OV-3
  CC50: > 100 µM
  Log10 TGI50: −4.11
U251
  Log10 TGI50: >−4.00
U251; Homo sapiens, U-251, read-out: Growth Inhibition GI50
  GI50: 9.93 µM
U251; Homo sapiens, U-251, read-out: Log10 GI50 (converted)
  GI50: 10 µM
U251; Homo sapiens, U-251, read-out: Log10 LC50 (converted)
  CC50: > 100 µM
MDA-MB-468; [6]
  GI50: 2.83 µM
MDA-MB-468; [7]
  GI50: 2.82 µM
MDA-MB-468; [8]
  CC50: > 100 µM
MDA-MB-468
  Log10 TGI50: >−4.00
IGROV1
  Log10 TGI50: >−4.00
IGROV1; Homo sapiens, IGROV-1, read-out: Growth Inhibition GI50
  GI50: 6.08 µM
IGROV1; Homo sapiens, IGROV-1, read-out: Log10 GI50 (converted)
  GI50: 6.03 µM
IGROV1; Homo sapiens, IGROV-1, read-out: Log10 LC50 (converted)
  CC50: > 100 µM
NCI/ADR-RES
  Log10 TGI50: −4.46
  CC50: > 100 µM
NCI/ADR-RES; [9]
  GI50: 3.61 µM
NCI/ADR-RES; [10]
  GI50: 3.63 µM
HOP-92
  Log10 TGI50: −5.11
HOP-92; [6]
  GI50: 2.31 µM
HOP-92; [7]
  GI50: 2.29 µM
HOP-92; [8]
  CC50: > 100 µM
OVCAR-3; [6]
  GI50: 2.33 µM
OVCAR-3; [7]
  GI50: 2.34 µM
OVCAR-3; [8]
  CC50: > 100 µM
OVCAR-3
  Log10 TGI50: −5.19
[4]
  GI50: 1.67 to 2.27 µM

## C#Cc1ccc(-n2c(/C=C/c3ccc(Cl)c(F)c3)nc3ncccc3c2=O)cc1 [4g, (E)-2-(4-chloro-3-fluorostyryl)-3-(4-ethynylphenyl)pyrido[2,3-d]pyrimidin-4(3H)-one]
UACC-257; [6]
  GI50: 0.54 µM
UACC-257; [7]
  GI50: 0.537 µM
OVCAR-4; [6]
  GI50: 0.48 µM
OVCAR-4; [7]
  GI50: 0.479 µM
NCI-H226; [9]
  GI50: 0.35 µM
NCI-H226; [10]
  GI50: 0.355 µM
ACHN; [6]
  GI50: 0.39 µM
ACHN; [7]
  GI50: 0.398 µM
[1]
  GI50: 0.33 to 0.37 µM
[5]
  GI50: 0.28 to 0.36 µM
786-0; [6]
  GI50: 0.36 µM
786-0; [7]
  GI50: 0.372 µM
DU-145
  CC50: > 100 µM
K-562; [9]
  GI50: 0.33 µM
K-562; [10]
  GI50: 0.339 µM
K-562
  CC50: > 100 µM
  Log10 TGI50: >−4.00
[2]
  GI50: 0.24 to 0.41 µM
HOP-62; [6]
  GI50: 0.58 µM
HOP-62; [7]
  GI50: 0.589 µM
[3]
  GI50: 0.3 to 0.48 µM
SK-OV-3; [9]
  GI50: 0.34 µM
SK-OV-3; [10]
  GI50: 0.347 µM
SK-OV-3
  CC50: > 100 µM
SR; [9]
  GI50: 0.33 µM
SR; [10]
  GI50: 0.331 µM
SR; read-out: Log10 LC50 (converted)
  CC50: > 100 µM
MDA-MB-468; [6]
  GI50: 0.24 µM
MDA-MB-468; [7]
  GI50: 0.245 µM
NCI/ADR-RES; [9]
  GI50: 0.41 µM
NCI/ADR-RES; [10]
  GI50: 0.417 µM
NCI/ADR-RES
  CC50: > 100 µM
HOP-92; [6]
  GI50: 0.2 µM
HOP-92; [7]
  GI50: 0.204 µM
OVCAR-3; [6]
  GI50: 0.3 µM
OVCAR-3; [7]
  GI50: 0.302 µM
[4]
  GI50: 0.34 µM
